Measured values taken from PubChem BioAssay AID256 (DTP/NCI, 2004).
Where “and” joins values, the source holds several entries; their conditions need not be identical. Equal entries are not always repeated. Inconclusive results and toxic doses are left out. The calls were made as follows: active = survival T/C of 150% or more; inactive = T/C below 125% in these data.

Tested on: CD2F1 mice, L1210 leukemia ip, survival T/C
Test: NCI In Vivo Anticancer Drug Screen. Data for tumor model L1210 Leukemia (intraperitoneal) in CD2F1 (CDF1) mice
Conditions: higher = longer survival
Summary of the method: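 Compound-dosed mice with transplantable tumor versus matched vehicle controls; endpoint ratio T/C reported.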

[1] = endpoint: mean survival time, dose: 25.0 mg/kg/injection, schedule: Q01DX009 (ip), vehicle: saline with Tween-80
[2] = endpoint: mean survival time, dose: 50.0 mg/kg/injection, schedule: Q01DX009 (ip), vehicle: saline with Tween-80
[3] = endpoint: mean survival time, dose: 100.0 mg/kg/injection, schedule: Q01DX009 (ip), vehicle: saline with Tween-80
[4] = endpoint: mean survival time, dose: 100.0 mg/kg/injection, schedule: Q04DX003 (ip), vehicle: saline with Tween-80
[5] = endpoint: mean survival time, dose: 100.0 mg/kg/injection, schedule: Q01DX001 (ip), vehicle: saline with Tween-80
[6] = endpoint: mean survival time, dose: 400.0 mg/kg/injection, schedule: Q01DX001 (ip), vehicle: saline with Tween-80
[7] = endpoint: mean survival time, dose: 200.0 mg/kg/injection, schedule: Q04DX003 (ip), vehicle: saline with Tween-80
[8] = endpoint: mean survival time, dose: 400.0 mg/kg/injection, schedule: Q04DX003 (ip), vehicle: saline with Tween-80
[9] = endpoint: mean survival time, dose: 100.0 mg/kg/injection, schedule: Q01DX001 (ip), vehicle: saline
[10] = endpoint: mean survival time, dose: 200.0 mg/kg/injection, schedule: Q01DX001 (ip), vehicle: saline
[11] = endpoint: mean survival time, dose: 400.0 mg/kg/injection, schedule: Q01DX001 (ip), vehicle: saline
[12] = endpoint: mean survival time, dose: 100.0 mg/kg/injection, schedule: Q04DX003 (ip), vehicle: saline
[13] = endpoint: mean survival time, dose: 200.0 mg/kg/injection, schedule: Q01DX009 (ip), vehicle: saline with Tween-80
[14] = endpoint: mean survival time, dose: 200.0 mg/kg/injection, schedule: Q04DX003 (ip), vehicle: saline
[15] = endpoint: mean survival time, dose: 400.0 mg/kg/injection, schedule: Q01DX009 (ip), vehicle: saline with Tween-80
[16] = endpoint: mean survival time, dose: 400.0 mg/kg/injection, schedule: Q04DX003 (ip), vehicle: saline

Measured: T/C

CC(C)OC(=O)Nc1ccccc1Cl
inactive: endpoint: mean survival time, dose: 100.0 mg/kg/injection, schedule: Q04DX003 (ip), vehicle: saline sonified 92 % of control | endpoint: mean survival time, dose: 200.0 mg/kg/injection, schedule: Q04DX003 (ip), vehicle: saline sonified 94 % of control | endpoint: mean survival time, dose: 400.0 mg/kg/injection, schedule: Q04DX003 (ip), vehicle: saline sonified 94 % of control

O=Cc1[nH]c(=S)[nH]c(=O)c1CCCc1ccccc1
inactive: endpoint: mean survival time, dose: 25.0 mg/kg/injection, schedule: Q04DX002 (ip), vehicle: Klucel (hydroxypropylcellulose) (HPC) 96 % of control | endpoint: mean survival time, dose: 50.0 mg/kg/injection, schedule: Q04DX002 (ip), vehicle: Klucel (hydroxypropylcellulose) (HPC) 104 % of control | endpoint: mean survival time, dose: 100.0 mg/kg/injection, schedule: Q04DX002 (ip), vehicle: Klucel (hydroxypropylcellulose) (HPC) 93 % of control | endpoint: mean survival time, dose: 200.0 mg/kg/injection, schedule: Q04DX002 (ip), vehicle: Klucel (hydroxypropylcellulose) (HPC) 94 % of control | endpoint: mean survival time, dose: 400.0 mg/kg/injection, schedule: Q04DX002 (ip), vehicle: Klucel (hydroxypropylcellulose) (HPC) 90 % of control

Cc1cc2sccc2cn1
inactive: [1] 100 % of control | [2] 98 % of control | [3] 98 % of control | [4] 90 % of control

Cc1ccc(C2NC(=S)N3C(c4ccc(C)cc4)NC(=S)N23)cc1 (centres undefined)
inactive: endpoint: median survival time, dose: 25.0 mg/kg/injection, schedule: Q01DX009 (ip), vehicle: Klucel (hydroxypropylcellulose) (HPC) 105 % of control | endpoint: median survival time, dose: 50.0 mg/kg/injection, schedule: Q01DX009 (ip), vehicle: Klucel (hydroxypropylcellulose) (HPC) 104 % of control | endpoint: median survival time, dose: 100.0 mg/kg/injection, schedule: Q01DX009 (ip), vehicle: Klucel (hydroxypropylcellulose) (HPC) 106 % of control | endpoint: median survival time, dose: 200.0 mg/kg/injection, schedule: Q01DX009 (ip), vehicle: Klucel (hydroxypropylcellulose) (HPC) 104 % of control | endpoint: median survival time, dose: 400.0 mg/kg/injection, schedule: Q01DX009 (ip), vehicle: Klucel (hydroxypropylcellulose) (HPC) 101 % of control | endpoint: median survival time, dose: 800.0 mg/kg/injection, schedule: Q01DX009 (ip), vehicle: Klucel (hydroxypropylcellulose) (HPC) 106 % of control

O=c1[nH]c(=O)n(CCCCOc2ccccc2)cc1-c1ccccc1
inactive: [5] 98 % of control | endpoint: mean survival time, dose: 200.0 mg/kg/injection, schedule: Q01DX001 (ip), vehicle: saline with Tween-80 101 % of control | [6] 96 % of control

COc1ccc(NC(=O)c2ccccc2)c([N+](=O)[O-])c1
inactive: [4] 105 % of control | [7] 97 % of control | [8] 94 % of control

CCCCC/C(C)=C(/C#N)C(=O)OCC
inactive: endpoint: mean survival time, dose: 75.0 mg/kg/injection, schedule: Q01DX001 (ip), vehicle: saline 97 % of control | endpoint: mean survival time, dose: 150.0 mg/kg/injection, schedule: Q01DX001 (ip), vehicle: saline 96 % of control | endpoint: mean survival time, dose: 300.0 mg/kg/injection, schedule: Q01DX001 (ip), vehicle: saline 97 % of control

[Cl][Sn]([c]1ccccc1)([c]1ccccc1)[c]1ccccc1
inactive: endpoint: mean survival time, dose: 2.5 mg/kg/injection, schedule: Q04DX003 (ip), vehicle: saline 91 % of control | endpoint: mean survival time, dose: 5.0 mg/kg/injection, schedule: Q04DX003 (ip), vehicle: saline 100 % of control | endpoint: mean survival time, dose: 10.0 mg/kg/injection, schedule: Q04DX003 (ip), vehicle: saline with Tween-80 97 % of control | endpoint: mean survival time, dose: 10.0 mg/kg/injection, schedule: Q04DX003 (ip), vehicle: saline 96 % of control

O=P(OCCCl)(OCCCl)C(Cl)Cl
inactive: [9] 96 % of control | [10] 100 % of control | [11] 97 % of control

CCOC(=O)NCC[N+](C)(C)C
inactive: endpoint: mean survival time, dose: 6.25 mg/kg/injection, schedule: Q04DX003 (ip), vehicle: saline 100 % of control | endpoint: mean survival time, dose: 12.5 mg/kg/injection, schedule: Q04DX003 (ip), vehicle: saline 102 % of control | endpoint: mean survival time, dose: 25.0 mg/kg/injection, schedule: Q04DX003 (ip), vehicle: saline 105 % of control

NC(Cc1ccc(N(CCCl)Cc2ccccc2)cc1)C(=O)O (centres undefined)
inactive: endpoint: mean survival time, dose: 3.12 mg/kg/injection, schedule: Q01DX009 (ip), vehicle: distilled water + Tween-80 103 % of control and 107 % of control | endpoint: mean survival time, dose: 3.13 mg/kg/injection, schedule: Q01DX009 (ip), vehicle: distilled water + Tween-80 106 % of control

CC(=O)Nc1ccc(C(=O)c2ccc(C(=O)O)cc2)cc1
inactive: endpoint: mean survival time, dose: 100.0 mg/kg/injection, schedule: Q04DX002 (ip), vehicle: saline with Tween-80 92 % of control and 98 % of control | [4] 95 % of control and 100 % of control | endpoint: mean survival time, dose: 200.0 mg/kg/injection, schedule: Q04DX002 (ip), vehicle: saline with Tween-80 93 % of control and 96 % of control | [7] 104 % of control and 109 % of control | endpoint: mean survival time, dose: 400.0 mg/kg/injection, schedule: Q04DX002 (ip), vehicle: saline with Tween-80 96 % of control and 107 % of control | [8] 114 % of control and 104 % of control

Cc1ccc[n+](CCc2c[nH]c3ccccc23)c1
inactive: endpoint: mean survival time, dose: 12.5 mg/kg/injection, schedule: Q01DX009 (ip), vehicle: saline with Tween-80 100 % of control | [1] 96 % of control | endpoint: mean survival time, dose: 25.0 mg/kg/injection, schedule: Q04DX003 (ip), vehicle: saline with Tween-80 98 % of control | [2] 101 % of control | endpoint: mean survival time, dose: 50.0 mg/kg/injection, schedule: Q04DX003 (ip), vehicle: saline with Tween-80 95 % of control

COC(=O)c1cc(NC(=O)Nc2cc([N+](=O)[O-])ccc2Cl)cc(C(=O)OC)c1
inactive: endpoint: mean survival time, dose: 50.0 mg/kg/injection, schedule: Q01DX001 (ip), vehicle: saline 92 % of control | [9] 86 % of control and 94 % of control | [3] 89 % of control and 95 % of control | endpoint: mean survival time, dose: 100.0 mg/kg/injection, schedule: Q04DX002 (ip), vehicle: saline 96 % of control | [12] 95 % of control | [10] 89 % of control | [13] 95 % of control and 102 % of control | endpoint: mean survival time, dose: 200.0 mg/kg/injection, schedule: Q04DX002 (ip), vehicle: saline 93 % of control and 107 % of control | [14] 102 % of control | [11] 88 % of control | [15] 102 % of control and 103 % of control | endpoint: mean survival time, dose: 400.0 mg/kg/injection, schedule: Q04DX002 (ip), vehicle: saline 91 % of control and 96 % of control | [16] 96 % of control

Cc1ccc(NC(=O)NCCCCCCNC(=O)Nc2ccc(C)c(Cl)c2)cc1Cl
inactive: [5] 89 % of control | [6] 91 % of control

O=C(O)c1ccccc1C(=O)NCCc1c[nH]c2ccccc12
inactive: [3] 104 % of control | [4] 96 % of control | [13] 96 % of control | [7] 96 % of control | [15] 102 % of control | [8] 95 % of control

O=[N+]([O-])c1ccc(N2CCCCC2)c([N+](=O)[O-])c1
inactive: [3] 96 % of control | [13] 98 % of control | [15] 95 % of control

CC(C)CCCC(C)C1C(O)CC2C3CCC4CC(O)CCC4(C)C3CCC21C (centres undefined)
inactive: endpoint: mean survival time, dose: 25.0 mg/kg/injection, schedule: Q01DX001 (ip), vehicle: saline with Tween-80 103 % of control | endpoint: mean survival time, dose: 50.0 mg/kg/injection, schedule: Q01DX001 (ip), vehicle: saline with Tween-80 95 % of control | [5] 97 % of control

NC(=Nc1ccccc1)Nc1ccccc1 (tested in a mixture with another compound)
inactive: [12] 103 % of control | [14] 97 % of control | [16] 100 % of control

COc1cc(/C=C/[N+](=O)[O-])cc(Br)c1OC
inactive: endpoint: median survival time, dose: 6.25 mg/kg/injection, schedule: Q01DX009 (ip), vehicle: saline with Tween-80 103 % of control | endpoint: median survival time, dose: 12.5 mg/kg/injection, schedule: Q01DX009 (ip), vehicle: saline with Tween-80 96 % of control | endpoint: median survival time, dose: 25.0 mg/kg/injection, schedule: Q01DX009 (ip), vehicle: saline with Tween-80 109 % of control

CC(C)C(=O)C1CCCCC1
inactive: [2] 103 % of control | [3] 95 % of control | [13] 95 % of control

c1ccc2c(c1)oc1ccccc12
inactive: [4] 98 % of control | [7] 92 % of control | [8] 92 % of control

O=Cc1c[nH]c2ccc(Br)cc12
inactive: endpoint: mean survival time, dose: 100.0 mg/kg/injection, schedule: Q01DX009 (ip), vehicle: saline 105 % of control | endpoint: mean survival time, dose: 200.0 mg/kg/injection, schedule: Q01DX009 (ip), vehicle: saline 113 % of control | endpoint: mean survival time, dose: 400.0 mg/kg/injection, schedule: Q01DX009 (ip), vehicle: saline 100 % of control

O=C1c2ccc([N+](=O)[O-])cc2-c2c1cccc2[N+](=O)[O-]
inactive: endpoint: mean survival time, dose: 25.0 mg/kg/injection, schedule: Q04DX002 (ip), vehicle: saline with Tween-80 95 % of control | endpoint: mean survival time, dose: 50.0 mg/kg/injection, schedule: Q04DX002 (ip), vehicle: saline with Tween-80 87 % of control
